Data: PubChem BioAssay (NCI)
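Method: 48-hour compound exposure of cells in 96-well plates, five concentrations, linear interpolation of endpoints. GI50 marks 50% less growth. TGI denotes the concentration required for complete inhibition of growth.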

Assays:
Experiment in all cases: DTP human tumour cell line panel, 48 h; in the data active = GI50 below about 0.43 µM; inactive = the rest
NCI/ADR-RES ovarian = test system: NCI/ADR-RES ovarian
OVCAR-5 ovarian = test system: OVCAR-5 ovarian
UACC-257 melanoma = test system: UACC-257 melanoma
BT-549 breast = test system: BT-549 breast
A498 renal = test system: A498 renal
NCI-H23 lung = test system: NCI-H23 lung
A549 NSCLC = test system: A549 NSCLC
SNB-75 CNS = test system: SNB-75 CNS
SW-620 colon = test system: SW-620 colon
MCF7 breast = test system: MCF7 breast
SNB-19 CNS = test system: SNB-19 CNS
T-47D breast = test system: T-47D breast
HCT-116 colon = test system: HCT-116 colon
LOX IMVI melanoma = test system: LOX IMVI melanoma
HL-60(TB) leukemia = test system: HL-60(TB) leukemia
M14 melanoma = test system: M14 melanoma
SR leukemia = test system: SR leukemia
786-0 renal = test system: 786-0 renal
TK-10 renal = test system: TK-10 renal
RPMI-8226 leukemia = test system: RPMI-8226 leukemia
HT29 colon = test system: HT29 colon
KM12 colon = test system: KM12 colon
RXF 393 renal = test system: RXF 393 renal
CAKI-1 renal = test system: CAKI-1 renal
OVCAR-3 ovarian = test system: OVCAR-3 ovarian
MDA-MB-435 = test system: MDA-MB-435
UACC-62 melanoma = test system: UACC-62 melanoma
SK-MEL-28 melanoma = test system: SK-MEL-28 melanoma
NCI-H522 lung = test system: NCI-H522 lung
SF-268 CNS = test system: SF-268 CNS
MDA-MB-231 breast = test system: MDA-MB-231 breast
K-562 leukemia = test system: K-562 leukemia
OVCAR-8 ovarian = test system: OVCAR-8 ovarian
U251 CNS = test system: U251 CNS
SF-295 CNS = test system: SF-295 CNS
HCT-15 colon = test system: HCT-15 colon
CCRF-CEM leukemia = test system: CCRF-CEM leukemia
SN12C renal = test system: SN12C renal
UO-31 renal = test system: UO-31 renal
HS 578T breast = test system: HS 578T breast
EKVX NSCLC = test system: EKVX NSCLC
ACHN renal = test system: ACHN renal
PC-3 prostate = test system: PC-3 prostate
HCC-2998 colon = test system: HCC-2998 colon
COLO 205 colon = test system: COLO 205 colon
IGROV1 ovarian = test system: IGROV1 ovarian
NCI-H460 lung = test system: NCI-H460 lung
MOLT-4 leukemia = test system: MOLT-4 leukemia
SK-MEL-5 melanoma = test system: SK-MEL-5 melanoma
HOP-62 NSCLC = test system: HOP-62 NSCLC
SF-539 CNS = test system: SF-539 CNS
DU-145 prostate = test system: DU-145 prostate
NCI-H226 lung = test system: NCI-H226 lung
SK-OV-3 ovarian = test system: SK-OV-3 ovarian
MALME-3M melanoma = test system: MALME-3M melanoma

N#Cc1c(Br)n(C2OC(CO)C(O)C2O)c2ncn3ccnc3c12 (stereo not given)
> 100 µM: TGI (NCI/ADR-RES ovarian) | TGI (OVCAR-5 ovarian) | TGI (UACC-257 melanoma) | TGI (BT-549 breast) | TGI (A498 renal) | TGI (NCI-H23 lung) | TGI (A549 NSCLC) | TGI (SNB-75 CNS) | TGI (SW-620 colon) | TGI (MCF7 breast) | TGI (SNB-19 CNS) | TGI (T-47D breast) | TGI (HCT-116 colon) | TGI (LOX IMVI melanoma) | TGI (HL-60(TB) leukemia) | TGI (M14 melanoma) | TGI (SR leukemia) | TGI (786-0 renal) | TGI (TK-10 renal) | TGI (RPMI-8226 leukemia) | TGI (HT29 colon) | TGI (KM12 colon) | TGI (RXF 393 renal) | TGI (CAKI-1 renal) | TGI (OVCAR-3 ovarian) | TGI (MDA-MB-435) | TGI (UACC-62 melanoma) | TGI (SK-MEL-28 melanoma) | TGI (NCI-H522 lung) | TGI (SF-268 CNS) | TGI (MDA-MB-231 breast) | TGI (K-562 leukemia) | TGI (OVCAR-8 ovarian) | TGI (U251 CNS) | TGI (SF-295 CNS) | TGI (HCT-15 colon) | TGI (CCRF-CEM leukemia) | TGI (SN12C renal) | TGI (UO-31 renal) | TGI (HS 578T breast) | TGI (EKVX NSCLC) | TGI (ACHN renal) | TGI (PC-3 prostate) | TGI (HCC-2998 colon) | TGI (COLO 205 colon) | TGI (IGROV1 ovarian) | TGI (NCI-H460 lung) | TGI (MOLT-4 leukemia) | TGI (SK-MEL-5 melanoma) | TGI (HOP-62 NSCLC) | TGI (SF-539 CNS) | TGI (DU-145 prostate) | TGI (NCI-H226 lung) | TGI (SK-OV-3 ovarian) | TGI (MALME-3M melanoma)
inactive: GI50 (NCI/ADR-RES ovarian) > 100 µM | GI50 (OVCAR-5 ovarian) > 100 µM | GI50 (UACC-257 melanoma) > 100 µM | GI50 (BT-549 breast) > 100 µM | GI50 (A498 renal) 19.9 µM | GI50 (NCI-H23 lung) > 100 µM | GI50 (A549 NSCLC) > 100 µM | GI50 (SNB-75 CNS) > 100 µM | GI50 (SW-620 colon) 44.1 µM | GI50 (MCF7 breast) > 100 µM | GI50 (SNB-19 CNS) > 100 µM | GI50 (T-47D breast) > 100 µM | GI50 (HCT-116 colon) 46.8 µM | GI50 (LOX IMVI melanoma) 60.1 µM | GI50 (HL-60(TB) leukemia) > 100 µM | GI50 (M14 melanoma) > 100 µM | GI50 (SR leukemia) 50.7 µM | GI50 (786-0 renal) > 100 µM | GI50 (TK-10 renal) > 100 µM | GI50 (RPMI-8226 leukemia) > 100 µM | GI50 (HT29 colon) 65.3 µM | GI50 (KM12 colon) > 100 µM | GI50 (RXF 393 renal) 86.7 µM | GI50 (CAKI-1 renal) > 100 µM | GI50 (OVCAR-3 ovarian) > 100 µM | GI50 (MDA-MB-435) > 100 µM | GI50 (UACC-62 melanoma) > 100 µM | GI50 (SK-MEL-28 melanoma) > 100 µM | GI50 (NCI-H522 lung) > 100 µM | GI50 (SF-268 CNS) 58 µM | GI50 (MDA-MB-231 breast) > 100 µM | GI50 (K-562 leukemia) 62.4 µM | GI50 (OVCAR-8 ovarian) 52.3 µM | GI50 (U251 CNS) > 100 µM | GI50 (SF-295 CNS) > 100 µM | GI50 (HCT-15 colon) > 100 µM | GI50 (CCRF-CEM leukemia) > 100 µM | GI50 (SN12C renal) > 100 µM | GI50 (UO-31 renal) 53.6 µM | GI50 (HS 578T breast) > 100 µM | GI50 (EKVX NSCLC) > 100 µM | GI50 (ACHN renal) 57.6 µM | GI50 (PC-3 prostate) 63.8 µM | GI50 (HCC-2998 colon) > 100 µM | GI50 (COLO 205 colon) 55.1 µM | GI50 (IGROV1 ovarian) 81.9 µM | GI50 (NCI-H460 lung) 40.7 µM | GI50 (MOLT-4 leukemia) 41.9 µM | GI50 (SK-MEL-5 melanoma) 64 µM | GI50 (HOP-62 NSCLC) > 100 µM | GI50 (SF-539 CNS) > 100 µM | GI50 (DU-145 prostate) 69.5 µM | GI50 (NCI-H226 lung) 40.6 µM | GI50 (SK-OV-3 ovarian) > 100 µM | GI50 (MALME-3M melanoma) > 100 µM
